Earlier results, collected in patent publication US20240060990A1, “SPATIAL SIGNALING NETWORKS FOR MULTIPLEXED DRUG RESPONSE MEASUREMENT AND MODELING” (Georgia Tech Research Corporation, priority 2022, published 2024).

Tested on: PC-9 cell cultures
Settings: PC-9 cells, combined with Osimertinib; cited from earlier work

Structure (SMILES) | cell apoptosis
CC(C)Nc1cc(-c2c[nH]c(C(=O)N[C@H](CO)c3cccc(Cl)c3)c2)c(Cl)cn1 [VRT, VRT752271] | enhanced
C=CC(=O)N1CCC(C)(Nc2cccc(C(F)(F)F)c2)C1 (centres unmarked) [YAP/TEAD inhibitor, MYF-01-37] | enhanced
